Like-named read-outs stand apart in the source and are kept apart here. Peptide text beside a SMILES is read from it.
Key:
Kv2.1 channel = target: T1, Kv2.1 channel (Rattus norvegicus, UniProt P15387, A366D/I383M/K360G/K386V/S367A/T359S/Y384T); test: Two-electrode voltage-clamp recording of Kv2.1 expressed in oocytes; type: cell-based
T1 sequence (P15387 1-857 T359S/K360G/A366D/S367A/I383M/Y384T/K386V): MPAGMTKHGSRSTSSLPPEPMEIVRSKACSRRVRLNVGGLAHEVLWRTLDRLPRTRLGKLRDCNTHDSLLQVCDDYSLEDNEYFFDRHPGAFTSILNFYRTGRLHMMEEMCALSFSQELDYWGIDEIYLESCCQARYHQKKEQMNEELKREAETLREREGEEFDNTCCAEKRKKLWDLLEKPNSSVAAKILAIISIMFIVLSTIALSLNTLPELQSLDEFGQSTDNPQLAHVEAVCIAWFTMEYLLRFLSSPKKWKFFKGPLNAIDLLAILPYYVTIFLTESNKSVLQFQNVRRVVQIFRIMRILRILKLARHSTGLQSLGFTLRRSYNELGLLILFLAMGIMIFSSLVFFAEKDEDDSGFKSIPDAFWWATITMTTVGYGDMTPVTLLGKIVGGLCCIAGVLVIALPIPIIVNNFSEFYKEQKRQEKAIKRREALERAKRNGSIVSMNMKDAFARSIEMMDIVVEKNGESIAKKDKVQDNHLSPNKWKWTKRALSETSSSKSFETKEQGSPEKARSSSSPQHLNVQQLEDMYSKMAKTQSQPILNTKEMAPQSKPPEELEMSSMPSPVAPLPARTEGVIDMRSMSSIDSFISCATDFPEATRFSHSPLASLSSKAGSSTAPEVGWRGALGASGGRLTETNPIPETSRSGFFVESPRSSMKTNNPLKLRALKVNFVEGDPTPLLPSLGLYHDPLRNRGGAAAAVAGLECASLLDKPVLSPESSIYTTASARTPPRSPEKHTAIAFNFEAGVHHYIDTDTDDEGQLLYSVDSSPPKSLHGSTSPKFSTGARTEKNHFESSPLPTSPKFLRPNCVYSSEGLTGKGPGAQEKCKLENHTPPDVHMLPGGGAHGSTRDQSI

[1] = Acrylamide quenching of W30 tryptophan fluorescence; type: physicochemical
[2] = for F/F0 max: 1:1 POPG:POPC LUVs; for F/F0 max / λmax: HEB, 100 mM K+
[3] = toxin:lipid 2 μM:0.9 mM, HEB pH 7, n = 3

SMILES: CC(C)C[C@@H]1NC(=O)[C@H](Cc2c[nH]cn2)NC(=O)[C@H](CCCCN)NC(=O)[C@@H]2CSSC[C@H](NC(=O)[C@@H](N)CCC(=O)O)C(=O)N[C@@H](CCCNC(=N)N)C(=O)N[C@@H](Cc3ccc(O)cc3)C(=O)N[C@@H](CC(C)C)C(=O)N[C@@H](Cc3ccccc3)C(=O)NCC(=O)NCC(=O)N[C@H]3CSSC[C@H](NC(=O)CNC1=O)C(=O)N[C@@H](CCCCN)C(=O)N[C@@H](Cc1ccccc1)C(=O)N[C@@H](CCCNC(=N)N)C(=O)N[C@@H](CC(=O)O)C(=O)N[C@@H](CCCCN)C(=O)N[C@@H](Cc1ccc(O)cc1)C(=O)N[C@H](C(=O)N[C@@H](C)C(=O)N[C@@H](Cc1c[nH]c4ccccc14)C(=O)N[C@@H](CC(=O)O)C(=O)N[C@@H](Cc1ccccc1)C(=O)N[C@H](C(=O)N[C@@H](Cc1ccccc1)C(=O)N[C@@H](CO)C(=O)O)[C@@H](C)O)CSSC[C@H](NC(=O)[C@H](CC(=O)O)NC(=O)[C@H](CO)NC(=O)[C@H]([C@@H](C)O)NC(=O)[C@H]([C@@H](C)O)NC(=O)[C@H](CCCCN)NC3=O)C(=O)N2 [Hanatoxin] (HELM PEPTIDE1{E.C.R.Y.L.F.G.G.C.K.T.T.S.D.C.C.K.H.L.G.C.K.F.R.D.K.Y.C.A.W.D.F.T.F.S}$PEPTIDE1,PEPTIDE1,2:R3-16:R3|PEPTIDE1,PEPTIDE1,9:R3-21:R3|PEPTIDE1,PEPTIDE1,15:R3-28:R3$$$V2.0; N-terminus and C-terminus assumed)
- effect on Kv2.1 channel opening (Kv2.1 channel; 4 μM hanatoxin in external solution, oocytes, n = 3): pronounced inhibition of opening at negative voltages
- time for channel activity to recover to control values after toxin removal (Kv2.1 channel; control (untreated) oocytes, 500 nM hanatoxin): ~1,000 s
- Stern-Volmer constant (KSV), Solution ([1]; toxin 2 μM in solution, no lipid vesicles, n = 3): 48 ± 3 M⁻¹
- Stern-Volmer constant (KSV), POPC, HEB [1, 3]: 10 ± 0.5 M⁻¹
- Stern-Volmer constant (KSV), POPC:POPG, HEB [1, 3]: 7 ± 0.1 M⁻¹
- Stern-Volmer constant (KSV), POPC:POPG, PB ([1]; toxin:lipid 2 μM:0.9 mM, PB (10 mM HEPES, 100 mM KCl, 1 mM MgCl2, 0.3 mM CaCl2, pH 7.6), n = 3): 18 ± 0.2 M⁻¹
- Stern-Volmer constant (KSV), POPC, PB ([1]; toxin:lipid 2 μM:0.9 mM, PB pH 7.6, n = 3): 23 ± 0.7 M⁻¹
- F/F0 max ([2]; 1 mM free Ca2+, n = 3): 2.1 ± 0.1
- F/F0 max ([2]; pH 7, n = 3): 2.0 ± 0.02
- λmax ([2]; +POPG:POPC vesicles, 1 mM free Ca2+): 350.0 nm
- λmax ([2]; +POPG:POPC vesicles, pH 7): 344.3 nm
- Kx ([2]; as printed in legend, anionic vesicles, HEB with 100 mM KCl, n = 3): (5.3 ± 0.03) × 10^5
- λmax ([2]; toxin in solution without lipid, 1 mM free Ca2+): 353.7 nm
- blue shift in fluorescence emission spectrum ([2]; upon addition of 1:1 POPC:POPG vesicles (2.4 mM), HEB pH 7): 10.9 nm

Source: PMC2151668 (The Journal of General Physiology, 2007)
